Source: US20260193264A1, “BENZOYPARAZINE PYRAZINES AND THEIR USES” (FOGHORN THERAPEUTICS INC., priority 2022, published 2026)

Tests used:
[1] = molecular target: T1, HiBiT-BRM fusion protein in stable HeLa cell line (Homo sapiens, UniProt P51531); test: HiBiT-BRM cell-based degradation assay (Nano-Glo HiBiT Lytic Detection, 24 h); set-up: DC50: scale not given here; conditions: HeLa HiBiT-BRM cells; for DC50: read-out: BRM HiBit Degradation IC50; for BRM HiBit Degradation Maximum (%): top dose 30 μM
T1 construct: expressed in transfected cells
Outline: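 Stable HiBiT-BRM HeLa cells treated 24 h with 10-point 3-fold dilutions, top final dose 30 μM, in duplicate. Luminescence read after lytic LgBiT reagent. Percent degradation was normalised to DMSO (high control) and 2 μM reference BRM/BRG1 degrader (low control).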

[2] = molecular target: T2, HiBit-BRG1 fusion protein in stable HeLa cell line expressing HiBit-BRG1 and LgBit (Homo sapiens, UniProt P51532); test: HiBiT-BRG1 cell-based degradation assay (Nano-Glo HiBiT, 24 h); conditions: HeLa HiBit-BRG1/LgBit cells; for DC50: read-out: BRMG1 HiBit Degradation IC50; for Dmax: top dose 30 μM, read-out: BRG1 HiBit Degradation Maximum (%)
T2 construct: expressed in transfected cells
Outline: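 Stable HeLa line co-expressing HiBiT-BRG1 and LgBiT, compound-treated 24 h; luminescence read after Nano-Glo HiBiT lytic reagent. % degradation normalised between DMSO (high control) and 2 μM reference BRM/BRG1 degrader (low control).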

T2 sequence (P51532 whole entry, the tested form may be a part): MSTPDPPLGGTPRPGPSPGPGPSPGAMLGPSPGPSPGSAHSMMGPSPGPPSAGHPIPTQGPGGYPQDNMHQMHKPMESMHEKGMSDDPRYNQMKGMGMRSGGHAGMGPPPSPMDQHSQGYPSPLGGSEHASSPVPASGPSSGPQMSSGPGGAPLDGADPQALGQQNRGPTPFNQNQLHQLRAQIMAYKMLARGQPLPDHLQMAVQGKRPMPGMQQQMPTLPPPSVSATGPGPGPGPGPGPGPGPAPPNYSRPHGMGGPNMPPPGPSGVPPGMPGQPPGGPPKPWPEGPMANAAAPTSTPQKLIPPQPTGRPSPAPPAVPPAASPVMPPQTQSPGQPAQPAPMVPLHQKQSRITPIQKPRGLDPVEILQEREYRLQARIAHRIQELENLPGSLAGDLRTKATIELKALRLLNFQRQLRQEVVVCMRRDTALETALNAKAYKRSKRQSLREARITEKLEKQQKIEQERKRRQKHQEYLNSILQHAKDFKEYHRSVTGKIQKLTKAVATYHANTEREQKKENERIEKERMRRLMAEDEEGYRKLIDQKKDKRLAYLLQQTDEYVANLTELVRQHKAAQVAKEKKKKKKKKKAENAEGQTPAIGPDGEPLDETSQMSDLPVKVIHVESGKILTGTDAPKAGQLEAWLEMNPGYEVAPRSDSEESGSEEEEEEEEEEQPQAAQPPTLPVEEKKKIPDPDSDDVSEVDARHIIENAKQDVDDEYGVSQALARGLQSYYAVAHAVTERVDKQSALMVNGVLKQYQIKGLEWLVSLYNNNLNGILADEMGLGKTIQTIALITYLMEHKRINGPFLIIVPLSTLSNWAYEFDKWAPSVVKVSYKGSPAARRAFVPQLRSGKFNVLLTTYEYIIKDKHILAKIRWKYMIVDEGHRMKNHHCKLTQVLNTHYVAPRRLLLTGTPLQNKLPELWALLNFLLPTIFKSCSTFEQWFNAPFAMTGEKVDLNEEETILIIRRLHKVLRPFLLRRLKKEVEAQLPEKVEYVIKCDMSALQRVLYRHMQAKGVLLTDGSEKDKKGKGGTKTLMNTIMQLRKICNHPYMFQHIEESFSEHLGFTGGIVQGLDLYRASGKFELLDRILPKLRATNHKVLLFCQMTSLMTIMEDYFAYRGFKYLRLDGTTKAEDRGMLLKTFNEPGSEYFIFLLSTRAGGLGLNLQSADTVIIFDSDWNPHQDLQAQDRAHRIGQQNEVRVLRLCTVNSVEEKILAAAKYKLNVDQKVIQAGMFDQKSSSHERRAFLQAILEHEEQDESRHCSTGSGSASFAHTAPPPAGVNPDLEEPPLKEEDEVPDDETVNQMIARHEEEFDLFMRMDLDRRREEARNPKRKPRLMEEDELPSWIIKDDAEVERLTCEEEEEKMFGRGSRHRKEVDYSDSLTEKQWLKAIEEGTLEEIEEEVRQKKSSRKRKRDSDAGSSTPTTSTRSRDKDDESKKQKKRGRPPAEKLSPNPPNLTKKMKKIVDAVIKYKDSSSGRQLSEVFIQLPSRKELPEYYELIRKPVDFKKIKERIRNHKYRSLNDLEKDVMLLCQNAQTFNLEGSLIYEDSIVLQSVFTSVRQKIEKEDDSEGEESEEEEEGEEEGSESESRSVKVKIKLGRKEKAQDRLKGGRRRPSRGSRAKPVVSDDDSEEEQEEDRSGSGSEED
T1 sequence (P51531 whole entry, the tested form may be a part): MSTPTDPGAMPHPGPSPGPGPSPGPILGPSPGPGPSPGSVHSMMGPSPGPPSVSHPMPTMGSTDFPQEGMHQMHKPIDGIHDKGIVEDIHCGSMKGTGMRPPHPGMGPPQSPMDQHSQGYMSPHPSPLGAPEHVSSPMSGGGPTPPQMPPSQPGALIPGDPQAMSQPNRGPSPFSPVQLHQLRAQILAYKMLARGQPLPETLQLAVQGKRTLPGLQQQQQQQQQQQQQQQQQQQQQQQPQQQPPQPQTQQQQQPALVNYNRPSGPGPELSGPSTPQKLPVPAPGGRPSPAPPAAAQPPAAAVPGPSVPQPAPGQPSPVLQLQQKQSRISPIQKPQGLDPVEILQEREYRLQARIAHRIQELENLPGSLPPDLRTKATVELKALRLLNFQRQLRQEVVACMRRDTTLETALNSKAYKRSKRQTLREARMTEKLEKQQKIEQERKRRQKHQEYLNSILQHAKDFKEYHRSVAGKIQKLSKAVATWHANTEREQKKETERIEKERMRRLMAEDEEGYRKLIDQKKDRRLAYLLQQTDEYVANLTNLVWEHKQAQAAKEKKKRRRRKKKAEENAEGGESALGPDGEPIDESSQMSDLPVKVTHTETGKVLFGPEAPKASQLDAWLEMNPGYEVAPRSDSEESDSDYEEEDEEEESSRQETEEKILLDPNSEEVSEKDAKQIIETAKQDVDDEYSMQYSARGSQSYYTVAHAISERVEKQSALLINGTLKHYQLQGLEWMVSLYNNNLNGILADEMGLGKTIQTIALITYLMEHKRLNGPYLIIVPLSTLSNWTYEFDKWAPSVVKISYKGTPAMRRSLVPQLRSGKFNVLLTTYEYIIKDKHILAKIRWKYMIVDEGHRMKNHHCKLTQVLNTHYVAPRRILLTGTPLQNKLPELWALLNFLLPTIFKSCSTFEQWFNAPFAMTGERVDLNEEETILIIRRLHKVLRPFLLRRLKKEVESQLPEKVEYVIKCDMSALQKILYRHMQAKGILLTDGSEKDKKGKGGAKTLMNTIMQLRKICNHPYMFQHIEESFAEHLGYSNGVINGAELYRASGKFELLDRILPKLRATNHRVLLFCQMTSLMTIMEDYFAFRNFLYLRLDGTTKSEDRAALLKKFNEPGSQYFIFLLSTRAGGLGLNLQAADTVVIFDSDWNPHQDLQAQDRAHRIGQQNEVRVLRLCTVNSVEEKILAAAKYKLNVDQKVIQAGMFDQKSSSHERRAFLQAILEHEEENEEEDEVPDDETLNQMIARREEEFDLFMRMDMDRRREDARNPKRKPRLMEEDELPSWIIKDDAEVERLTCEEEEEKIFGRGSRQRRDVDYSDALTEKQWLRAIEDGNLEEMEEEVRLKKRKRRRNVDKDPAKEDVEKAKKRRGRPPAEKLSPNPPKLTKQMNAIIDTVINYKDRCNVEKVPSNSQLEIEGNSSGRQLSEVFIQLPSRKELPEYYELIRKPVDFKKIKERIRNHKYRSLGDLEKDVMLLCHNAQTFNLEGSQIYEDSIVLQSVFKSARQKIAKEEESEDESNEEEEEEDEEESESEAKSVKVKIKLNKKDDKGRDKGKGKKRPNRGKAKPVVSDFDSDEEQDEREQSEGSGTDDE

Row | DC50 [1] | DC50 [2] | Dmax [2] | SMILES | BRM HiBit Degradation Maximum (%) [1]
1 | < 10 nM | < 10 nM | > 75% | Cc1ncsc1-c1ccc([C@H](C)NC(=O)[C@@H]2C[C@@H](O)CN2C(=O)C(C(C)C)n2cc(N3CCN(CC4CCN(c5ccc6cc(-c7ccccc7O)nnc6c5)CC4)CC3)nn2)cc1 (stereo partly drawn) [Compound 247, (2S,4R)-4-hydroxy-1-(2-(4-(4-((1-(3-(2-hydroxyphenyl)cinnolin-7-yl)piperidin-4-yl)methyl)piperazin-1-yl)-1H-1,2,3-triazol-1-yl)-3-methylbutanoyl)-N-((S)-1-(4-(4-methylthiazol-5-yl)phenyl)ethyl)pyrrolidine-2-carboxamide] | A (“A” indicates maximum degradation ≥75%)
2 | < 10 nM | > 10 nM | > 75% | Cc1ncsc1-c1ccc([C@H](C)NC(=O)[C@@H]2C[C@@H](O)CN2C(=O)C(C(C)C)n2cc(N3CCC4CCN(c5ccc6cc(-c7ccccc7O)nnc6c5)C4C3)nn2)cc1 (stereo partly drawn) [Compound 248, (2S,4R)-4-hydroxy-1-(2-(4-(1-(3-(2-hydroxyphenyl)cinnolin-7-yl)octahydro-6H-pyrrolo[2,3-c]pyridin-6-yl)-1H-1,2,3-triazol-1-yl)-3-methylbutanoyl)-N-((S)-1-(4-(4-methylthiazol-5-yl)phenyl)ethyl)pyrrolidine-2-carboxamide] | A (“A” indicates maximum degradation ≥75%)
3 | < 10 nM | < 10 nM | > 75% | Cc1ncsc1-c1ccc([C@H](C)NC(=O)[C@@H]2C[C@@H](O)CN2C(=O)C(C(C)C)n2cc(N3CC4CN(c5ccc6cc(-c7ccccc7O)nnc6c5)CCC43)nn2)cc1 (stereo partly drawn) [Compound 250, (2S,4R)-4-hydroxy-1-(2-(4-(3-(3-(2-hydroxyphenyl)cinnolin-7-yl)-3,7-diazabicyclo[4.2.0]octan-7-yl)-1H-1,2,3-triazol-1-yl)-3-methylbutanoyl)-N-((S)-1-(4-(4-methylthiazol-5-yl)phenyl)ethyl)pyrrolidine-2-carboxamide] | A (“A” indicates maximum degradation ≥75%)
4 | < 10 nM | < 10 nM | > 75% | Cc1ncsc1-c1ccc([C@H](C)NC(=O)[C@@H]2C[C@@H](O)CN2C(=O)C(C(C)C)n2cc(N3CCCC4(CCN(c5ccc6cc(-c7ccccc7O)nnc6c5)CC4)C3)nn2)cc1 (stereo partly drawn) [Compound 251, (2S,4R)-4-hydroxy-1-(2-(4-(9-(3-(2-hydroxyphenyl)cinnolin-7-yl)-2,9-diazaspiro[5.5]undecan-2-yl)-1H-1,2,3-triazol-1-yl)-3-methylbutanoyl)-N-((S)-1-(4-(4-methylthiazol-5-yl)phenyl)ethyl)pyrrolidine-2-carboxamide] | A (“A” indicates maximum degradation ≥75%)

Further lines, the compound ahead of its results:

Row | SMILES | DC50 [1] | DC50 [2] | Dmax [2] | BRM HiBit Degradation Maximum (%) [1]
5 | Cc1ncsc1-c1ccc([C@H](C)NC(=O)[C@@H]2C[C@@H](O)CN2C(=O)C(C(C)C)n2cc(N3CC4CCN(c5ccc6cc(-c7ccccc7O)nnc6c5)CC43)nn2)cc1 (stereo partly drawn) [Compound 249, (2S,4R)-4-hydroxy-1-(2-(4-(3-(3-(2-hydroxyphenyl)cinnolin-7-yl)-3,8-diazabicyclo[4.2.0]octan-8-yl)-1H-1,2,3-triazol-1-yl)-3-methylbutanoyl)-N-((S)-1-(4-(4-methylthiazol-5-yl)phenyl)ethyl)pyrrolidine-2-carboxamide] | > 10 nM | > 100 nM | > 75% | A (“A” indicates maximum degradation ≥75%)
6 | Cc1ncsc1-c1ccc([C@H](C)NC(=O)[C@@H]2C[C@@H](O)CN2C(=O)[C@@H](c2cc(N3CC4(CC(c5cc6nnc(-c7ccccc7O)cc6cc5C5CC5)C4)C3)no2)C(C)C)cc1 [Compound 252, (2S,4R)-1-((R)-2-(3-(6-(6-cyclopropyl-3-(2-hydroxyphenyl)cinnolin-7-yl)-2-azaspiro[3.3]heptan-2-yl)isoxazol-5-yl)-3-methylbutanoyl)-4-hydroxy-N-((S)-1-(4-(4-methylthiazol-5-yl)phenyl)ethyl)pyrrolidine-2-carboxamide] | < 10 nM | < 10 nM | > 75% | A (“A” indicates maximum degradation ≥75%)
7 | Cc1ncsc1-c1ccc([C@H](C)NC(=O)[C@@H]2C[C@@H](O)CN2C(=O)[C@@H](c2cc(N3CC4(C3)CN(c3cc5nnc(-c6ccccc6O)cc5cc3OC3CC3)C4)no2)C(C)C)cc1 [Compound 253, (2S,4R)-1-((R)-2-(3-(6-(6-cyclopropoxy-3-(2-hydroxyphenyl)cinnolin-7-yl)-2,6-diazaspiro[3.3]heptan-2-yl)isoxazol-5-yl)-3-methylbutanoyl)-4-hydroxy-N-((S)-1-(4-(4-methylthiazol-5-yl)phenyl)ethyl)pyrrolidine-2-carboxamide] | < 10 nM | < 10 nM | > 75% | A (“A” indicates maximum degradation ≥75%)
8 | C#Cc1ccc([C@H](C)NC(=O)[C@@H]2C[C@@H](O)CN2C(=O)[C@H](C(C)C)n2cc(N3CC4(CN(c5ccc6cc(-c7ccccc7O)nnc6c5)C4)C3)nn2)cc1 [Compound 254, (2S,4R)-N-((S)-1-(4-ethynylphenyl)ethyl)-4-hydroxy-1-((S)-2-(4-(6-(3-(2-hydroxyphenyl)cinnolin-7-yl)-2,6-diazaspiro[3.3]heptan-2-yl)-1H-1,2,3-triazol-1-yl)-3-methylbutanoyl)pyrrolidine-2-carboxamide] | < 10 nM | – | < 50% | A (“A” indicates maximum degradation ≥75%)
9 | C#Cc1ccc(CNC(=O)[C@@H]2C[C@@H](O)CN2C(=O)[C@H](C(C)C)n2cc(N3CC4(CN(c5ccc6cc(-c7ccccc7O)nnc6c5)C4)C3)nn2)cc1 [Compound 255, (2S,4R)-N-(4-ethynylbenzyl)-4-hydroxy-1-((S)-2-(4-(6-(3-(2-hydroxyphenyl)cinnolin-7-yl)-2,6-diazaspiro[3.3]heptan-2-yl)-1H-1,2,3-triazol-1-yl)-3-methylbutanoyl)pyrrolidine-2-carboxamide] | < 10 nM | – | < 50% | A (“A” indicates maximum degradation ≥75%)
10 | Cc1ncsc1-c1ccc([C@H](C)NC(=O)[C@@H]2C[C@@H](O)CN2C(=O)[C@@H](c2cc(N3CCC(N4CC5(CN(Cc6ccc7nnc(-c8ccccc8O)cc7c6)C5)C4)CC3)no2)C(C)C)cc1 [Compound 256, (2S,4R)-4-hydroxy-1-((R)-2-(3-(4-(6-((3-(2-hydroxyphenyl)cinnolin-6-yl)methyl)-2,6-diazaspiro [3.3]heptan-2-yl)piperidin-1-yl)isoxazol-5-yl)-3-methylbutanoyl)-N-((S)-1-(4-(4-methylthiazol-5-yl)phenyl)ethyl)pyrrolidine-2-carboxamide] | > 100 nM | > 10 nM | > 75% | B (“B” indicates maximum degradation ≥50%)
11 | Cc1ncsc1-c1ccc([C@@H](C)NC(=O)[C@H]2C[C@H](O)CN2C(=O)[C@H](C(C)C)n2cc(N3CC4(CN(c5ccc6nnc(-c7ccccc7O)cc6c5)C4)C3)cn2)cc1 [Compound 258, (2R,4S)-4-hydroxy-1-[(2S)-2-(4-{6-[3-(2-hydroxyphenyl)cinnolin-6-yl]-2,6-diazaspiro[3.3]heptan-2-yl}pyrazol-1-yl)-3-methylbutanoyl]-N-[(1R)-1-[4-(4-methyl-1,3-thiazol-5-yl)phenyl]ethyl]pyrrolidine-2-carboxamide] | > 10 nM | > 10 nM | > 50% | A (“A” indicates maximum degradation ≥75%)
